According to patent publication US10085451B2, “Synergistic herbicidal composition containing penoxsulam and bentazon” (Dow AgroSciences LLC, priority 2010, dated 2018):

How the values were obtained:
[1] = test system: Cyperus iria; CYPIR; assay: Postemergence herbicidal activity of mixtures in the greenhouse, sedge weed control; assay type: in vivo; settings: 21 days after application
Description: Seeds of the desired test plant species were planted in 80% mineral soil/20% grit planting mixture, which typically has a pH of 7.2 and an organic matter content of approximately 3 percent, in plastic pots with a surface area of 128 square centimeters (cm^2). The growing medium was steam sterilized. The plants were grown for 7-19 days (d) in a greenhouse with an approximate 14-hour (h) photoperiod which was maintained at about 29° C. during the day and 26° C. during the night. Nutrients and water were added on a regular basis and supplemental lighting was provided with overhead metal halide 1000-Watt lamps as necessary. The plants were treated with postemergence foliar applications when they reached the second to fourth true leaf stage. All treatments were applied using a randomized complete block trial design, with 4 replications per treatment. Treatments consisted of the compounds as listed in Tables 1 and 3, each compound applied alone and in combination. Formulated amounts of penoxsulam and bentazon, were placed in 60 milliliter (mL) glass vials and dissolved in a volume of 60 mL of a water solution containing Agri-dex crop oil concentrate in a 1% v/v ratio. Compound requirements are based upon a 12 mL application volume at a rate of 187 liters per hectare (L/ha). Spray solutions of the mixtures were prepared by adding the stock solutions to the appropriate amount of dilution solution to form a 12 mL spray solution with active ingredients in single and two way combinations. Formulated compounds were applied to the plant material with an overhead Mandel track sprayer equipped with […] nozzles calibrated to deliver 187 L/ha at a spray height of 18 inches (43 centimeters (cm)) above average plant canopy. The treated plants and control plants were placed in a greenhouse as described above and watered by sub-irrigation to prevent wash-off of the test compounds. […] Visual weed control was scored on a scale of 0 to 100 percent where 0 corresponds to no injury and 100 corresponds to complete kill. […]

[2] = test system: Sagittaria trifolia (SAGTR); assay: Postemergence herbicidal activity of mixtures in the field, broadleaf weed control; assay type: in vivo; settings: 6 to 45 days after application
Description: (§1) Field trials were conducted in rice using standard herbicide small plot research methodology. Plots varied from 3×3 meter (m) to 3×10 m (width×length) with 4 replicates per treatment. The rice crop was grown using normal cultural practices for fertilization, seeding, watering, flooding and maintenance to ensure good growth of the crop and the weeds. All treatments in the field trials were applied using a CO2 backpack sprayer calibrated to apply 187 L/ha spray volume. Commercially available products of penoxsulam and bentazon were mixed in water at appropriate formulated product rates to achieve the desired rates based on a unit area of application (hectare) to achieve the desired rates as shown. Treatments were rated at 6 to 45 d after application as compared to the untreated control plants. Visual weed control was scored on a scale of 0 to 100 percent where 0 corresponds to no injury and 100 corresponds to complete kill. Colby's equation was used to determine the herbicidal effects expected from the mixtures (Colby, S. R. Calculation of the synergistic and antagonistic response of herbicide combinations. Weeds 1967, 15, 20-22.). The following equation was used to calculate the expected activity of mixtures containing two active ingredients, A and B: Expected=A+B−(A×B/100) A=observed efficacy of active ingredient A at the same concentration as used in the mixture. B=observed efficacy of active ingredient B at the same concentration as used in the mixture.

[3] = test system: Echinochloa crus-galli (ECHCG); assay: Postemergence herbicidal activity of mixtures in the field, grass weed control; assay type: in vivo; settings: 6 to 45 days after application
Description: as §1, with “B=observed efficacy of active ingredient B at the same concentration as used in the mixture.” left out

[4] = test system: Rice (ORYSA); assay: Safening of injury in rice in the greenhouse; assay type: in vivo, Orysa sativa; settings: 21 days after application
Description: Seeds of the desired test plant species were planted in 80% mineral soil/20% grit planting mixture, which typically has a pH of 7.2 and an organic matter content of approximately 3 percent, in plastic pots with a surface area of 128 square centimeters (cm^2). The growing medium was steam sterilized. The plants were grown for 7-19 days (d) in a greenhouse with an approximate 14-hour (h) photoperiod which was maintained at about 29° C. during the day and 26° C. during the night. Nutrients and water were added on a regular basis and supplemental lighting was provided with overhead metal halide 1000-Watt lamps as necessary. The plants were treated with postemergence foliar applications when they reached the second to fourth true leaf stage. All treatments were applied using a randomized complete block trial design, with 4 replications per treatment. Treatments consisted of the compounds as listed in Tables 1 and 3, each compound applied alone and in combination. Formulated amounts of penoxsulam and bentazon, were placed in 60 milliliter (mL) glass vials and dissolved in a volume of 60 mL of a water solution containing Agri-dex crop oil concentrate in a 1% v/v ratio. […] Visual weed control was scored on a scale of 0 to 100 percent where 0 corresponds to no injury and 100 corresponds to complete kill. […]

[5] = bentazon-sodium 1000 g/ha alone

| Compound | % Control CYPIR Ob ([1]; bentazon-sodium 500 g/ha alone) [%] | % Control CYPIR Ob [1, 5] [%] | % Control SAGTR Ob ([2]; bentazon-sodium 1100 g/ha alone) [%] | % Control ECHCG Ob ([3]; bentazon-sodium 2000 g/ha alone) [%] | % Control ORYSA Ob ([4]; bentazon-sodium 500 g/ha alone) [%] | % Control ORYSA Ob [4, 5] [%] | % Control CYPIR Ob ([1]; penoxsulam 3 g/ha alone) [%] | % Control SAGTR Ob ([2]; penoxsulam 15 g/ha alone) [%] | % Control SAGTR Ob ([2]; penoxsulam 23 g/ha alone) [%] | % Control ECHCG Ob ([3]; penoxsulam 38 g/ha alone) [%] |
| --- | --- | --- | --- | --- | --- | --- | --- | --- | --- | --- |
| CC(C)N1C(=O)c2ccccc2NS1(=O)=O [Bentazon-Sodium, 3-(1-methylethyl)-1H-2,1,3-benzothiadiazin-4(3H)-one 2,2-dioxide] | 55 | 72 | 78 | 0 | 14 | 16 |  |  |  |  |
| COc1cnc(OC)n2nc(NS(=O)(=O)c3c(OCC(F)F)cccc3C(F)(F)F)nc12 [Penoxsulam, 2-(2,2-difluoroethoxy)-N-(5,8-dimethoxy-[1,2,4]triazolo[1,5-c]pyrimidin-2-yl)-6-(trifluoromethyl)benzenesulfonamide] |  |  |  |  |  |  | 20 | 38 | 45 | 30 |
